The values that follow come from paper PMC8869358, “High-Throughput Chemical Screening and Structure-Based Models to Predict hERG Inhibition” (Biology, 2022).

SMILES strings stand for the structures.

By IC50 is commonly meant the concentration that inhibits the measured activity by half. Higher therefore signals weaker potency.

Sequence of hERG (Q12809 whole entry): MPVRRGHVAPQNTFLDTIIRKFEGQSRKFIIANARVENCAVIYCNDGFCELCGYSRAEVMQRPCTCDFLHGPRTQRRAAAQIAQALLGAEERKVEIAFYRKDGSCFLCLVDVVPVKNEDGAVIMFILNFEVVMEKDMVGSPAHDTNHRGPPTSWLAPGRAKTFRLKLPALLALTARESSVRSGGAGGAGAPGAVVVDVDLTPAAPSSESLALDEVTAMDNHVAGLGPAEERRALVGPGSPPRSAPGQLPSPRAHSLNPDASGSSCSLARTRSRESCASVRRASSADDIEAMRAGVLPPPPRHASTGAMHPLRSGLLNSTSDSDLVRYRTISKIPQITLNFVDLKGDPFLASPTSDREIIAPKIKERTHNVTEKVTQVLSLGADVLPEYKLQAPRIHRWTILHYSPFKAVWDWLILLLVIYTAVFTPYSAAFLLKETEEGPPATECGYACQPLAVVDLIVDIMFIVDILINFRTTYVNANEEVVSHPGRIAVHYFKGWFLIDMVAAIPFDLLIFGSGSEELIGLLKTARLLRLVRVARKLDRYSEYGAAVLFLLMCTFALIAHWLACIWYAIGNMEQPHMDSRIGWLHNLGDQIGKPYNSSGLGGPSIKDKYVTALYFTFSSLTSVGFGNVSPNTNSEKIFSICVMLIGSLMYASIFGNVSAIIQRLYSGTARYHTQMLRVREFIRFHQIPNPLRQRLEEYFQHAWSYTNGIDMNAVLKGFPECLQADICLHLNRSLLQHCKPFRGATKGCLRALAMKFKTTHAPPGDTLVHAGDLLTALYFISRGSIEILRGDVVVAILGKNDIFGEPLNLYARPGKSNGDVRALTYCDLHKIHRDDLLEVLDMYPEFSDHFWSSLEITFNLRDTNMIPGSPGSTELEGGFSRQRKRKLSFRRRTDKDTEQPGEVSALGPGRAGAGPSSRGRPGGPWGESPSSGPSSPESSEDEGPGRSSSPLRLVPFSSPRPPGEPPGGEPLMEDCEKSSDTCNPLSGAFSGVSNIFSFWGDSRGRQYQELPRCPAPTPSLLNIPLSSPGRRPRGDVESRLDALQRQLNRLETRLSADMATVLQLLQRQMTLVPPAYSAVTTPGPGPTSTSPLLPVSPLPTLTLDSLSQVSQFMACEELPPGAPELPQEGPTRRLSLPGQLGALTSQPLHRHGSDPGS

One data set concerns the target hERG (Homo sapiens, UniProt Q12809). As to the kind of experiment: in vitro. The settings on record: fluxor ii thallium influx herg, (-LOG10(IC50), µM).
`CCCCCCCCCCCC[N+](C)(C)Cc1ccccc1` [Benzyldodecyldimethylammonium bromide] had a half-maximal inhibitory concentration (IC50) of 1.25 µM.
On the same count and under the same terms, for `C=C1C(CCl)(CCl)C2(Cl)C(Cl)C(Cl)C1(Cl)C2(Cl)Cl` (centres unmarked) [Toxaphene] the value was 35.6 µM.

The data set is the same for the next values; noted with them: herg fluxor ii thallium influx, (-LOG10(IC50), µM).
`CCCCCCCCCCCC[N+](C)(C)Cc1ccccc1` [Benzyldimethyldodecylammonium chloride] had a concentration for half-maximal inhibition (IC50) of 1.21 µM. That is a single-digit micromolar value.
On the same count and under the same terms, the same measure for `CC(=O)[O-].CC(=O)[O-].[Hg+2]` [Mercury(II) acetate]: 6.16 µM; for `CCNc1cc2[o+]c3cc(NCC)c(C)cc3c(-c3ccccc3C(=O)OCC)c2cc1C` [Rhodamine 6G]: 2.45 µM.
`CC1(C)C2(Cl)C(Cl)C(Cl)C(Cl)(C(Cl)Cl)C1(Cl)C2Cl` (centres unmarked) [Strobane]: the 50% inhibitory concentration (IC50) is 41.2 µM.
Still for that read-out and setting: for `ClC1=C(Cl)C2(Cl)C3C(Cl)C(Cl)CC3C1(Cl)C2(Cl)Cl` (centres unmarked) [Technical chlordane] the value was 28.5 µM.
Still for that read-out and setting: the same measure for `c1cc[c]([Sb]([c]2ccccc2)[c]2ccccc2)cc1` [Triphenylstibine]: 17.4 µM.
